Measured values taken from PMC9817970 (Cancers, 2022).

Key:
Test in all cases: Kinase panel profiling
Type in all cases: biochemical
Conditions in all cases: 10 μM ATP
AKT3 = biological target: T1, AKT3 (Homo sapiens, UniProt Q9Y243)
T1 construct: purchased Reaction Biology Corp
Description: (§1) Kinase panel profiling was conducted by Reaction Biology Corp. (San Diego, CA, USA). A single dose (1.0 μM) of 6r was tested against 371 recombinant human kinases in the presence of 10 μM ATP.

CAMK1a = biological target: T2, CAMK1a (Homo sapiens, UniProt Q14012)
T2 construct: purchased Reaction Biology Corp
Description: as §1

CAMK2a = biological target: T3, CAMK2a (Homo sapiens, UniProt Q9UQM7)
T3 construct: purchased Reaction Biology Corp
Description: as §1

CDK1/cyclin A = biological target: T4, CDK1/cyclin A (Homo sapiens, UniProt P06493)
T4 construct: purchased Reaction Biology Corp
Description: as §1

CDK2/CYCLIN A = biological target: T5, CDK2/CYCLIN A (Homo sapiens, UniProt P24941)
T5 construct: purchased Reaction Biology Corp
Description: as §1

CDK3/cyclin E = biological target: T6, CDK3/cyclin E (Homo sapiens, UniProt Q00526)
T6 construct: purchased Reaction Biology Corp
Description: as §1

CK1a1 = biological target: T7, CK1a1 (Homo sapiens, UniProt P48729)
T7 construct: purchased Reaction Biology Corp
Description: as §1

CSK = biological target: T8, CSK (Homo sapiens, UniProt P41240)
T8 construct: purchased Reaction Biology Corp
Description: as §1

DYRK3 = biological target: T9, DYRK3 (Homo sapiens, UniProt O43781)
T9 construct: purchased Reaction Biology Corp
T9 sequence (O43781 whole entry): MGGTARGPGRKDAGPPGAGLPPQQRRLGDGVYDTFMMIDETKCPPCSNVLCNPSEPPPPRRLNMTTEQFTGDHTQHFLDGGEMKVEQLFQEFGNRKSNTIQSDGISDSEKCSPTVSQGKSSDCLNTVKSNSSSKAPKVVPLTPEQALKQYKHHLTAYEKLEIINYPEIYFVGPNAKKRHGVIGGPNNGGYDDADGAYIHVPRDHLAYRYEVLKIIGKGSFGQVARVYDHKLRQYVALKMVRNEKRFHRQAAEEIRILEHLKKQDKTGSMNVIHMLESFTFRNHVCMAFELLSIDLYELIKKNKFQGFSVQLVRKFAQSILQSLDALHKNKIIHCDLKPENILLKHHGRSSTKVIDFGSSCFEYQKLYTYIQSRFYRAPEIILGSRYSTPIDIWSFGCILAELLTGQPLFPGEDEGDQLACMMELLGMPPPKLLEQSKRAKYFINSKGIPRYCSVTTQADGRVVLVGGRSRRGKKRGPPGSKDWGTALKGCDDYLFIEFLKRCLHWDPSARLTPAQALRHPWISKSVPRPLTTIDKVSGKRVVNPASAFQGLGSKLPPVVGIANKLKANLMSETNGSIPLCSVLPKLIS
Description: as §1

EPHA1 = biological target: T10, EPHA1 (Homo sapiens, UniProt P21709)
T10 construct: purchased Reaction Biology Corp
Description: as §1

EPHA3 = biological target: T11, EPHA3 (Homo sapiens, UniProt P29320)
T11 construct: purchased Reaction Biology Corp
T11 sequence (P29320 21-983): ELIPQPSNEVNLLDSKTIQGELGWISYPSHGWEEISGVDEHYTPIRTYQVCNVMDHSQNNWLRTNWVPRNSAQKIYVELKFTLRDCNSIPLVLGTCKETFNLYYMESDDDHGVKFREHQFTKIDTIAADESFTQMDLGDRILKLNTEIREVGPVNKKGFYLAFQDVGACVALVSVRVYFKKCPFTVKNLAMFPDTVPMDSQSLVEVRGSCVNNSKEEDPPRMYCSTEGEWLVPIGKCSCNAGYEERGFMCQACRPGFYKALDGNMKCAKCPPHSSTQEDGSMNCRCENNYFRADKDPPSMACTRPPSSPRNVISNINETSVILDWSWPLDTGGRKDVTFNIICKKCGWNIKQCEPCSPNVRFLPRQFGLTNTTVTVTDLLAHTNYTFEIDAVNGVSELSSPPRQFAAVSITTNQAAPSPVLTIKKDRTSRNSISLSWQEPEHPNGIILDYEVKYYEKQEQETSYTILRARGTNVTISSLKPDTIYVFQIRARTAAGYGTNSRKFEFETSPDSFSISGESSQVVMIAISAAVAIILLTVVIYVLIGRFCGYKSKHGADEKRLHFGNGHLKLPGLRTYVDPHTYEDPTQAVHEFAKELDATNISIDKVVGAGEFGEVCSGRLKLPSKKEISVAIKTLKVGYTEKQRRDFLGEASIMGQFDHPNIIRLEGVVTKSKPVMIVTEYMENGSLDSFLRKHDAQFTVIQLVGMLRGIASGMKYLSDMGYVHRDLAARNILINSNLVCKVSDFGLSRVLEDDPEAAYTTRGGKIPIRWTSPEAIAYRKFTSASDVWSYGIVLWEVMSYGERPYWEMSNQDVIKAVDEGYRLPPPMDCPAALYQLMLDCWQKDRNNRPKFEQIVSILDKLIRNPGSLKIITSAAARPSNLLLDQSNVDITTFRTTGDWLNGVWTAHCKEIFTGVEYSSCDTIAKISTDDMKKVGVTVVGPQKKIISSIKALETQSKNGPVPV
Description: as §1

EPHB1 = biological target: T12, EPHB1 (Homo sapiens, UniProt P54762)
T12 construct: purchased Reaction Biology Corp
Description: as §1

EPHB2 = biological target: T13, EPHB2 (Homo sapiens, UniProt P29323)
T13 construct: purchased Reaction Biology Corp
Description: as §1

ERK5/MAPK7 = biological target: T14, ERK5/MAPK7 (Homo sapiens, UniProt Q13164)
T14 construct: purchased Reaction Biology Corp
Description: as §1

ERN2/IRE2 = biological target: T15, ERN2/IRE2 (Homo sapiens, UniProt Q76MJ5)
T15 construct: purchased Reaction Biology Corp
Description: as §1

FES/FPS = biological target: T16, FES/FPS (Homo sapiens, UniProt P07332)
T16 construct: purchased Reaction Biology Corp
Description: as §1

FGFR3 = biological target: T17, FGFR3 (Homo sapiens, UniProt P22607)
T17 construct: purchased Reaction Biology Corp
Description: as §1

IKKe/IKBKE = biological target: T18, IKKe/IKBKE (Homo sapiens, UniProt Q14164)
T18 construct: purchased Reaction Biology Corp
Description: as §1

JNK3 = biological target: T19, JNK3 (Homo sapiens, UniProt P53779)
T19 construct: purchased Reaction Biology Corp
Description: as §1

LATS1 = biological target: T20, LATS1 (Homo sapiens, UniProt O95835)
T20 construct: purchased Reaction Biology Corp
Description: as §1

MAK = biological target: T21, MAK (Homo sapiens, UniProt P20794)
T21 construct: purchased Reaction Biology Corp
Description: as §1

MSK2/RPS6KA4 = biological target: T22, MSK2/RPS6KA4 (Homo sapiens, UniProt O75676)
T22 construct: purchased Reaction Biology Corp
Description: as §1

MST3/STK24 = biological target: T23, MST3/STK24 (Homo sapiens, UniProt Q9Y6E0)
T23 construct: purchased Reaction Biology Corp
Description: as §1

MYLK4 = biological target: T24, MYLK4 (Homo sapiens, UniProt Q86YV6)
T24 construct: purchased Reaction Biology Corp
Description: as §1

P38d/MAPK13 = biological target: T25, P38d/MAPK13 (Homo sapiens, UniProt O15264)
T25 construct: purchased Reaction Biology Corp
T25 sequence (O15264 whole entry): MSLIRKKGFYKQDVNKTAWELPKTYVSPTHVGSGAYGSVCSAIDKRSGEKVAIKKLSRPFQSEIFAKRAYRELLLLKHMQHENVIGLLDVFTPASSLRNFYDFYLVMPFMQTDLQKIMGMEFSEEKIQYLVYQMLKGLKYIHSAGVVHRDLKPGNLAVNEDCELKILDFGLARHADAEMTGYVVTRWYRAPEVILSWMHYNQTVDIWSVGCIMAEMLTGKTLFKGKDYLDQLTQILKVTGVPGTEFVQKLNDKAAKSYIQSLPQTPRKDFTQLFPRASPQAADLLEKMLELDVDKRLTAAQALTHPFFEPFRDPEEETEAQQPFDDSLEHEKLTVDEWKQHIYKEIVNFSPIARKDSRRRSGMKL
Description: as §1

PAK5 = biological target: T26, PAK5 (Homo sapiens, UniProt Q9P286)
T26 construct: purchased Reaction Biology Corp
T26 sequence (Q9P286 whole entry): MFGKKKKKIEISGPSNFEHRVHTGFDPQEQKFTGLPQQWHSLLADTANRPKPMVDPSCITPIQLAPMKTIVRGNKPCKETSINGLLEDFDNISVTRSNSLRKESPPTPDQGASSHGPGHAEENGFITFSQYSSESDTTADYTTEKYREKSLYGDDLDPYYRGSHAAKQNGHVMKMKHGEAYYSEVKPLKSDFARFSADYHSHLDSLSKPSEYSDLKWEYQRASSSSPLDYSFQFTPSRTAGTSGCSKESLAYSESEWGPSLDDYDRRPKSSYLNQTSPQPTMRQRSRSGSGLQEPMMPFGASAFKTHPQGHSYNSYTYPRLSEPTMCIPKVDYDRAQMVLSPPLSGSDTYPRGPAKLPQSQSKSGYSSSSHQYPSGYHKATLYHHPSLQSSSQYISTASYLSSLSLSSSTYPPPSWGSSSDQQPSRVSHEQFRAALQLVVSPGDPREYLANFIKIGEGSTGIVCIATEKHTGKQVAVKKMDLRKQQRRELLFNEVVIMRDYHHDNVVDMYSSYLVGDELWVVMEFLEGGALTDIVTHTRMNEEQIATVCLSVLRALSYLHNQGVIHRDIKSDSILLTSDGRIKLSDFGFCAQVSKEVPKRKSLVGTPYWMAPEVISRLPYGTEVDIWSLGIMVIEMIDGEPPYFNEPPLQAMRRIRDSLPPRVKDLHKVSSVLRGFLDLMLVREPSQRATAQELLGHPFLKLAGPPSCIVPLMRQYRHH
Description: as §1

PKCiota = biological target: T27, PKCiota (Homo sapiens, UniProt P41743)
T27 construct: purchased Reaction Biology Corp
Description: as §1

PKG1b = biological target: T28, PKG1b (Homo sapiens, UniProt Q13976)
T28 construct: purchased Reaction Biology Corp
T28 sequence (Q13976 1-686 isoform Q13976-2): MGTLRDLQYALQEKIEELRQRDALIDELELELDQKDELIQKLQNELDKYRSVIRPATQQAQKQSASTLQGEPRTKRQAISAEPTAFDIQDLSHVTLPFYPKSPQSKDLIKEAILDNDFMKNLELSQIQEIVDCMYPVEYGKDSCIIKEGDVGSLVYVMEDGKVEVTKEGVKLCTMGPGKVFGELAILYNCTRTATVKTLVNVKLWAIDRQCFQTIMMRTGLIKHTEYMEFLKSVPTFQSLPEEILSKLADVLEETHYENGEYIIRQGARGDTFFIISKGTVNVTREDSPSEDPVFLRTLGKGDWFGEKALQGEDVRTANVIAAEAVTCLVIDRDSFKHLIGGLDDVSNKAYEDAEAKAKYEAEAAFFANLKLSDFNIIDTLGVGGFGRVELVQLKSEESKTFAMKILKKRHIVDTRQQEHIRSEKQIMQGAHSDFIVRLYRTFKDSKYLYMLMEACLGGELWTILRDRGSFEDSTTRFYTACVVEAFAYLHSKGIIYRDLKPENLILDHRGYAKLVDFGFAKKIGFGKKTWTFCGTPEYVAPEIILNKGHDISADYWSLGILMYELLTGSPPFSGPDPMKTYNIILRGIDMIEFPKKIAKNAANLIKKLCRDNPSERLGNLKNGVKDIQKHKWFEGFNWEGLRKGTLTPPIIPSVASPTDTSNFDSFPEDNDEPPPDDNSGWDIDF
Description: as §1

PLK2 = biological target: T29, PLK2 (Homo sapiens, UniProt Q9NYY3)
T29 construct: purchased Reaction Biology Corp
T29 sequence (Q9NYY3 whole entry): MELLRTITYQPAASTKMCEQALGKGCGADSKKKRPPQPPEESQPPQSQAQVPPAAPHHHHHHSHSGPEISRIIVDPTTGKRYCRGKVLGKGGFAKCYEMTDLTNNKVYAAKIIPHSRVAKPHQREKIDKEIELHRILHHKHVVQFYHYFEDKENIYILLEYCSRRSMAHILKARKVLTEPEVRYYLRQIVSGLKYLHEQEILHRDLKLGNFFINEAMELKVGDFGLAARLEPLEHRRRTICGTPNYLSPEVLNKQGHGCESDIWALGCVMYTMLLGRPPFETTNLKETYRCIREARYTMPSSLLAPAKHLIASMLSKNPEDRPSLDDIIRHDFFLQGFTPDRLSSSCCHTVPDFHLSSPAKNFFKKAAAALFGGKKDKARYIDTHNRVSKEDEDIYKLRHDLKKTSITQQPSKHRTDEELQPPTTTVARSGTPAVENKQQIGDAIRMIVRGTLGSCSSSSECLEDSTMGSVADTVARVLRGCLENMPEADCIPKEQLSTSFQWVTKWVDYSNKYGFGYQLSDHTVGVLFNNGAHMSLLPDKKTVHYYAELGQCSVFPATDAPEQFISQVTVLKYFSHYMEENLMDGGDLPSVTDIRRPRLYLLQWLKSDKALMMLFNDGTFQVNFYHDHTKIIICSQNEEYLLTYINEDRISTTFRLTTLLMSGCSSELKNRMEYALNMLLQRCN
Description: as §1

PLK4/SAK = biological target: T30, PLK4/SAK (Homo sapiens, UniProt O00444)
T30 construct: purchased Reaction Biology Corp
Description: as §1

RIPK2 = biological target: T31, RIPK2 (Homo sapiens, UniProt O43353)
T31 construct: purchased Reaction Biology Corp
Description: as §1

RIPK4 = biological target: T32, RIPK4 (Homo sapiens, UniProt P57078)
T32 construct: purchased Reaction Biology Corp
Description: as §1

RIPK5 = biological target: T33, RIPK5 (Homo sapiens, UniProt Q6XUX3)
T33 construct: purchased Reaction Biology Corp
T33 sequence (Q6XUX3 whole entry): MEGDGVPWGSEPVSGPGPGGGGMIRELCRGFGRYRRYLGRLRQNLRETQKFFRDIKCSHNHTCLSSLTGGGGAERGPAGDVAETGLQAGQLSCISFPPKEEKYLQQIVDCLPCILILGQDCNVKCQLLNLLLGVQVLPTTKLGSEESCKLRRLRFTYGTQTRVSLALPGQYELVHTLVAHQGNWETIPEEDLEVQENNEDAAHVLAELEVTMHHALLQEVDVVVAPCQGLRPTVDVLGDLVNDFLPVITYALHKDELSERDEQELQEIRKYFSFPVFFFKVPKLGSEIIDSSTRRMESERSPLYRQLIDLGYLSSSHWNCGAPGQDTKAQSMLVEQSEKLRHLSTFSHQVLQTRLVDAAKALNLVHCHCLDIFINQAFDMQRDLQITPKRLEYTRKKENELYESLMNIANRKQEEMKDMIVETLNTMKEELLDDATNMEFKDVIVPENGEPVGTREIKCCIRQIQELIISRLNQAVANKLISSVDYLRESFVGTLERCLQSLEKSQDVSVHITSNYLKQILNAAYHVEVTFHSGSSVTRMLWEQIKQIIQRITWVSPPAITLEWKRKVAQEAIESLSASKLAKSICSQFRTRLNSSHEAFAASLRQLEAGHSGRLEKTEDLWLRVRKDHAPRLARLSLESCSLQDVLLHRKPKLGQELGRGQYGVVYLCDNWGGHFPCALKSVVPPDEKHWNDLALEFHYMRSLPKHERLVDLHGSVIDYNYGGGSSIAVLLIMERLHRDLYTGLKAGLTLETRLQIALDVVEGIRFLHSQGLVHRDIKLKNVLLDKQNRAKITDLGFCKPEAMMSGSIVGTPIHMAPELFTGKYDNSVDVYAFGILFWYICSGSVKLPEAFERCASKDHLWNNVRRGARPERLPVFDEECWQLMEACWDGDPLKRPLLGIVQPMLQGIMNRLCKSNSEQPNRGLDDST
Description: as §1

STK32B/YANK2 = biological target: T34, STK32B/YANK2 (Homo sapiens, UniProt Q9NY57)
T34 construct: purchased Reaction Biology Corp
Description: as §1

STK38/NDR1 = biological target: T35, STK38/NDR1 (Homo sapiens, UniProt Q15208)
T35 construct: purchased Reaction Biology Corp
Description: as §1

TAK1 = biological target: T36, TAK1 (Homo sapiens, UniProt O43318)
T36 construct: purchased Reaction Biology Corp
Description: as §1

TTBK2 = biological target: T37, TTBK2 (Homo sapiens, UniProt Q6IQ55)
T37 construct: purchased Reaction Biology Corp
Description: as §1

TYRO3/SKY = biological target: T38, TYRO3/SKY (Homo sapiens, UniProt Q06418)
T38 construct: purchased Reaction Biology Corp
Description: as §1

WNK3 = biological target: T39, WNK3 (Homo sapiens, UniProt Q9BYP7)
T39 construct: purchased Reaction Biology Corp
Description: as §1

ZAK/MLTK = biological target: T40, ZAK/MLTK (Homo sapiens, UniProt Q9NYL2)
T40 construct: purchased Reaction Biology Corp
Description: as §1

ZAP70 = biological target: T41, ZAP70 (Homo sapiens, UniProt P43403)
T41 construct: purchased Reaction Biology Corp
Description: as §1

ZIPK/DAPK3 = biological target: T42, ZIPK/DAPK3 (Homo sapiens, UniProt O43293)
T42 construct: purchased Reaction Biology Corp
Description: as §1

Which results are given for `Cc1ccc(NC(=O)c2ccc(CN3CCN(C)CC3)c(C(F)(F)F)c2)cc1-c1cnc2sc(N)nc2c1` [6r]?
inhibition at 1 µM (AKT3): 13.6%; inhibition at 1 µM (CAMK1a): 8%; inhibition at 1 µM (CAMK2a): 16%; inhibition at 1 µM (CDK1/cyclin A): 3.8%; inhibition at 1 µM (CDK2/CYCLIN A): 0%; inhibition at 1 µM (CDK3/cyclin E): 14.3%; inhibition at 1 µM (CK1a1): 13.7%; inhibition at 1 µM (CSK): 41.3%; inhibition at 1 µM (DYRK3): 0%; inhibition at 1 µM (EPHA1): 8.2%; inhibition at 1 µM (EPHA3): 41.1%; inhibition at 1 µM (EPHB1): 65.7%; inhibition at 1 µM (EPHB2): 38.9%; inhibition at 1 µM (ERK5/MAPK7): 6.5%; inhibition at 1 µM (ERN2/IRE2): 12.9%; inhibition at 1 µM (FES/FPS): 39.7%; inhibition at 1 µM (FGFR3): 0%; inhibition at 1 µM (IKKe/IKBKE): 2%; inhibition at 1 µM (JNK3): 5.1%; inhibition at 1 µM (LATS1): 1.5%; inhibition at 1 µM (MAK): 15%; inhibition at 1 µM (MSK2/RPS6KA4): 17.1%; inhibition at 1 µM (MST3/STK24): 12.5%; inhibition at 1 µM (MYLK4): 4.6%; inhibition at 1 µM (P38d/MAPK13): 0%; inhibition at 1 µM (PAK5): 5%; inhibition at 1 µM (PKCiota): 8.6%; inhibition at 1 µM (PKG1b): 3.3%; inhibition at 1 µM (PLK2): 3.9%; inhibition at 1 µM (PLK4/SAK): 10.4%; inhibition at 1 µM (RIPK2): 20.6%; inhibition at 1 µM (RIPK4): 4.8%; inhibition at 1 µM (RIPK5): 4.4%; inhibition at 1 µM (STK32B/YANK2): 0%; inhibition at 1 µM (STK38/NDR1): 17.1%; inhibition at 1 µM (TAK1): 12.8%; inhibition at 1 µM (TTBK2): 23.2%; inhibition at 1 µM (TYRO3/SKY): 14.6%; inhibition at 1 µM (WNK3): 7.1%; inhibition at 1 µM (ZAK/MLTK): 50%; inhibition at 1 µM (ZAP70): 8.7%; inhibition at 1 µM (ZIPK/DAPK3): 6.7%
